# Results reported in PMC5548886 (Cancer Medicine, 2017).
# Like-named read-outs stand apart in the source and are kept apart here.
# Experiment: Pharmacokinetics, unchanged RAF265 in plasma
# Assay type: in vivo, human
# Details: for Cmin, Mean (SD): Steady State (average of troughs from Cycle 2 Day 1 onwards); for AUC(0-t) / Cmax / Tmax / half-life: human, plasma, oral; for AUC(0-t): read-out: AUC(0-tlast), Mean (SD); for Cmax: read-out: Cmax, Mean (SD); for Tmax: read-out: Tmax, Median
# Protocol: PK parameters included the maximum observed concentration (C max), time to reach C max (T max), area under the curve from time 0 to last measurable concentration (AUClast), time point of the last measurable concentration (T last), and terminal half‐life of elimination phase (T 1/2). Cycle 1 Day 1 and day 15, reported PK parameters include C max, T max, AUClast and T last. Following log‐transformation, the PK parameters AUC and C max from the PK run‐in were analyzed separately using a mixed effects model fitting terms for dose and patient (Patient treated as a random factor)‐ln(PK parameter) = a + b*ln(Dose)+error. In this model, the dose‐exposure relationship is mainly characterized by the slope parameter b. A slope lower (higher) than 1 indicates an under (over) proportional dose‐exposure relationship. The point estimate and associated 90% CI for the slope parameter were determined for safety considerations.
# [1] = 2 mg, Cycle 1 Day 15, DL 1, MD 2 mg
# [2] = 3 mg, Cycle 1 Day 15, DL 2, MD 3 mg
# [3] = 6 mg, Cycle 1 Day 15, DL 3, MD 6 mg
# [4] = 8 mg, Cycle 1 Day 1, DL 1, LD 8 mg
# [5] = 10 mg, First dose (PK run-in), DL 1, 10 mg
# [6] = 12 mg, Cycle 1 Day 15, DL 4, MD 12 mg
# [7] = 16 mg, Cycle 1 Day 1, DL 2, LD 16 mg
# [8] = 20 mg, First dose (PK run-in), DL 2, 20 mg
# [9] = 24 mg, Cycle 1 Day 15, DL 5, MD 24 mg
# [10] = 29 mg, Cycle 1 Day 1, DL 3, LD 29 mg
# [11] = 36 mg, First dose (PK run-in), DL 3, 36 mg
# [12] = 48 mg, Cycle 1 Day 15, DL 6, MD 48 mg
# [13] = 58 mg, Cycle 1 Day 1, DL 4, LD 58 mg
# [14] = 67 mg, Cycle 1 Day 15, DL 7, MD 67 mg
# [15] = 67 mg, Cycle 1 Day 15, DL 7.1, MD 67 mg
# [16] = 72 mg, First dose (PK run-in), DL 4, 72 mg
# [17] = 115 mg, Cycle 1 Day 1, DL 5, LD 115 mg
# [18] = 144 mg, First dose (PK run-in), DL 5, 144 mg
# [19] = 230 mg, Cycle 1 Day 1, DL 6, LD 230 mg
# [20] = 288 mg, Cycle 1 Day 1, DL 7.1, LD 288 mg as three doses
# [21] = 288 mg, First dose (PK run-in), DL 6, 288 mg
# [22] = 322 mg, Cycle 1 Day 1, DL 7, LD 322 mg
# [23] = 403 mg, First dose (PK run-in), DL 7, 403 mg
smiles,measurement,setting,value
Cn1c(Nc2ccc(C(F)(F)F)cc2)nc2cc(Oc3ccnc(-c4ncc(C(F)(F)F)[nH]4)c3)ccc21 [RAF265],"Tlast, Median","Cycle 1 Day 1, DL 1, LD 8 mg",25 h
same,"Tlast, Median","Cycle 1 Day 1, DL 2, LD 16 mg",22.9 h
same,"Tlast, Median","Cycle 1 Day 1, DL 3, LD 29 mg",23.8 h
same,"Tlast, Median","Cycle 1 Day 1, DL 4, LD 58 mg",24.4 h
same,"Tlast, Median","Cycle 1 Day 1, DL 5, LD 115 mg",24 h
same,"Tlast, Median","Cycle 1 Day 1, DL 6, LD 230 mg",24.1 h
same,"Tlast, Median","Cycle 1 Day 1, DL 7, LD 322 mg",24 h
same,"Tlast, Median","Cycle 1 Day 1, DL 7.1, LD 288 mg as three doses",23.8 h
same,"Tlast, Median","Cycle 1 Day 15, DL 1, MD 2 mg",25.3 h
same,"Tlast, Median","Cycle 1 Day 15, DL 2, MD 3 mg",22.5 h
same,"Tlast, Median","Cycle 1 Day 15, DL 3, MD 6 mg",24.1 h
same,"Tlast, Median","Cycle 1 Day 15, DL 4, MD 12 mg",24 h
same,"Tlast, Median","Cycle 1 Day 15, DL 5, MD 24 mg",24 h
same,"Tlast, Median","Cycle 1 Day 15, DL 6, MD 48 mg",23.7 h
same,"Tlast, Median","Cycle 1 Day 15, DL 7, MD 67 mg",23.4 h
same,"Tlast, Median","Cycle 1 Day 15, DL 7.1, MD 67 mg",23.8 h
same,"Tlast, Median","First dose (PK run-in), DL 1, 10 mg",168 h
same,"Tlast, Median","First dose (PK run-in), DL 2, 20 mg",168 h
same,"Tlast, Median","First dose (PK run-in), DL 3, 36 mg",168 h
same,"Tlast, Median","First dose (PK run-in), DL 4, 72 mg",167 h
same,"Tlast, Median","First dose (PK run-in), DL 5, 144 mg",167 h
same,"Tlast, Median","First dose (PK run-in), DL 6, 288 mg",167 h
same,"Tlast, Median","First dose (PK run-in), DL 7, 403 mg",168 h
same,"Cmin, Mean (SD)","DL 1, MD 2 mg",1.23 (0.22) ug/mL
same,"Cmin, Mean (SD)","DL 2, MD 3 mg",1.51 (0.82) ug/mL
same,"Cmin, Mean (SD)","DL 3, MD 6 mg",1.82 (0.28) ug/mL
same,"Cmin, Mean (SD)","DL 4, MD 12 mg",4.31 (1.22) ug/mL
same,"Cmin, Mean (SD)","DL 5, MD 24 mg",7.31 (1.99) ug/mL
same,"Cmin, Mean (SD)","DL 6, MD 48 mg",13.1 (5.57) ug/mL
same,"Cmin, Mean (SD)","DL 7, MD 67 mg",21.8 (3.76) ug/mL
same,"Cmin, Mean (SD)","DL 7.1, MD 67 mg",15.5 (7.47) ug/mL
same,dose dependence of mean Cmax and AUC,across dose levels,increased nearly proportionally with dose
same,AUC(0-t),[1],2670 ng·h/mL
same,Cmax,[1],130 ng/mL
same,Tmax,[1],3 h
same,AUC(0-t),[2],2300 ng·h/mL
same,Cmax,[2],120 ng/mL
same,Tmax,[2],3.07 h
same,AUC(0-t),[3],4150 ng·h/mL
same,Cmax,[3],200 ng/mL
same,Tmax,[3],2.52 h
same,AUC(0-t),[4],2080 ng·h/mL
same,Cmax,[4],140 ng/mL
same,Tmax,[4],4 h
same,AUC(0-t),[5],6200 ng·h/mL
same,Cmax,[5],140 ng/mL
same,half-life,"10 mg, First dose (PK run-in), DL 1, 10 mg, read-out: T1/2, Median (converted)",287 h
same,Tmax,[5],3 h
same,AUC(0-t),[6],8590 ng·h/mL
same,Cmax,[6],420 ng/mL
same,Tmax,[6],5.13 h
same,AUC(0-t),[7],2650 ng·h/mL
same,Cmax,[7],170 ng/mL
same,Tmax,[7],3 h
same,AUC(0-t),[8],8770 ng·h/mL
same,Cmax,[8],150 ng/mL
same,half-life,"20 mg, First dose (PK run-in), DL 2, 20 mg, read-out: T1/2, Median (converted)",209 h
same,Tmax,[8],2 h
same,AUC(0-t),[9],16100 ng·h/mL
same,Cmax,[9],850 ng/mL
same,Tmax,[9],2.75 h
same,AUC(0-t),[10],3930 ng·h/mL
same,Cmax,[10],276 ng/mL
same,Tmax,[10],3.53 h
same,AUC(0-t),[11],12100 ng·h/mL
same,Cmax,[11],260 ng/mL
same,half-life,"36 mg, First dose (PK run-in), DL 3, 36 mg, read-out: T1/2, Median (converted)",127 h
same,Tmax,[11],2.52 h
same,AUC(0-t),[12],28500 ng·h/mL
same,Cmax,[12],1650 ng/mL
same,Tmax,[12],3.93 h
same,AUC(0-t),[13],7280 ng·h/mL
same,Cmax,[13],500 ng/mL
same,Tmax,[13],3 h
same,AUC(0-t),[14],46800 ng·h/mL
same,Cmax,[14],2650 ng/mL
same,Tmax,[14],4 h
same,AUC(0-t),[15],35400 ng·h/mL
same,Cmax,[15],1830 ng/mL
same,Tmax,[15],3 h
same,AUC(0-t),[16],22600 ng·h/mL
same,Cmax,[16],540 ng/mL
same,half-life,"72 mg, First dose (PK run-in), DL 4, 72 mg, read-out: T1/2, Median (converted)",174 h
same,Tmax,[16],2.01 h
same,AUC(0-t),[17],15700 ng·h/mL
same,Cmax,[17],1070 ng/mL
same,Tmax,[17],2 h
same,AUC(0-t),[18],51800 ng·h/mL
same,Cmax,[18],1060 ng/mL
same,half-life,"144 mg, First dose (PK run-in), DL 5, 144 mg, read-out: T1/2, Median (converted)",182 h
same,Tmax,[18],2.15 h
same,AUC(0-t),[19],28100 ng·h/mL
same,Cmax,[19],2250 ng/mL
same,Tmax,[19],2.58 h
same,AUC(0-t),[20],18400 ng·h/mL
same,Cmax,[20],1130 ng/mL
same,Tmax,[20],22.3 h
same,AUC(0-t),[21],99800 ng·h/mL
same,Cmax,[21],2310 ng/mL
same,half-life,"288 mg, First dose (PK run-in), DL 6, 288 mg, read-out: T1/2, Median (converted)",183 h
same,Tmax,[21],3 h
same,AUC(0-t),[22],39000 ng·h/mL
same,Cmax,[22],2720 ng/mL
same,Tmax,[22],3 h
same,AUC(0-t),[23],137000 ng·h/mL
same,Cmax,[23],2680 ng/mL
same,half-life,"403 mg, First dose (PK run-in), DL 7, 403 mg, read-out: T1/2, Median (converted)",294 h
same,Tmax,[23],3 h
same,half-life,"patients, read-out: half-life (converted)",~192 h
same,half-life,"patients, read-out: serum half-life (converted)",~200 h
